# Molecular target: T1, sodium-proton exchanger of subtype 3 (NHE3) (Homo sapiens, UniProt P48764)
# T1 construct: expressed in transfected cells
# T1 sequence (P48764 26-834): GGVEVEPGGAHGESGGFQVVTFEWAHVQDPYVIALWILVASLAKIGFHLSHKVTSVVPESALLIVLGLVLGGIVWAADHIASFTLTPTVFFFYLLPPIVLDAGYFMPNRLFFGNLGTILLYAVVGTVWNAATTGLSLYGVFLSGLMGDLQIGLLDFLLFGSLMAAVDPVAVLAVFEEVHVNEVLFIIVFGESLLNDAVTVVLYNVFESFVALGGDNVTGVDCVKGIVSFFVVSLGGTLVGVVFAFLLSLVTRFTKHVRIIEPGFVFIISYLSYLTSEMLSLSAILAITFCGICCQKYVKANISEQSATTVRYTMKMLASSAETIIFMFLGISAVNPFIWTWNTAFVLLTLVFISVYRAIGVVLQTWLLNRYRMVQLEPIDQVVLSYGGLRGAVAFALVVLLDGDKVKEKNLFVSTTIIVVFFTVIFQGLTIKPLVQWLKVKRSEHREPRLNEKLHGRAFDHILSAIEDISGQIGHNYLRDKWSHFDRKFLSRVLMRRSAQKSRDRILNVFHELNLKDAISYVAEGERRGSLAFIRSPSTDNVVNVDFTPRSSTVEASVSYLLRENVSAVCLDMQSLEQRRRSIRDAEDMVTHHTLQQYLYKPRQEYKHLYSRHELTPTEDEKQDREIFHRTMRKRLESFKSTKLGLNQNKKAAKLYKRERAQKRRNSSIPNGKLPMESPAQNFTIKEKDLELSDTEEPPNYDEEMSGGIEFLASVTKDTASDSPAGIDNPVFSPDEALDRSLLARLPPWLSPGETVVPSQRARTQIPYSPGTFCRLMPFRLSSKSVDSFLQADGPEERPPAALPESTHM
# Test: Recovery of intracellular pH (pHi) after acidification in LAP1 cells stably expressing NHE3 (BCECF fluorescence, FLIPR)
# Format: cell-based
# Conditions: LAP1 cells stably expressing NHE3; pH recovery after acidification; range 1 is % inhibition at 10 μM; read-out: Activity range (inhibitory effect on NHE3)
IC50 [µM],inhibition at 10 µM [%],SMILES
1 to 10,,"CC(C)c1nccn1-c1ccc(O[C@H]2c3cc(Cl)cc(Cl)c3C[C@@H]2N2CC[C@@H](O)C2)cc1 [Example 732, (R)-1-{trans-(1S,2S)-4,6-Dichloro-1-[4-(2-isopropyl-imidazol-1-yl)-phenoxy]-indan-2-yl}-pyrrolidin-3-ol]"
1 to 10,,"Cc1nn(C)c(C)c1-c1ccc(O[C@H]2c3cc(Cl)cc(Cl)c3C[C@@H]2N2CC[C@@H](O)C2)cc1 [Example 124, (R)-1-{trans-(1S,2S)-4,6-dichloro-1-[4-(1,3,5-trimethyl-1H-pyrazol-4-yl)phenoxy]indan-2-yl}pyrrolidin-3-ol]"
,20 to 50,"CSc1ccc(O[C@H]2c3ccccc3CC[C@@H]2N2CCC[C@H](N)C2)cc1 (racemic) [Example 183, (S)-1-[rac-trans-(1,2)-1-(4-methylsulfanylphenoxy)-1,2,3,4-tetrahydronaphthalen-2-yl]piperidin-3-ylamine]"
1 to 10,,"NC(=O)c1cccc(O[C@@H]2c3ccccc3C[C@H]2N2CCC(N)C2)c1 (mixture of isomers) [Example 415, 3-[rac-trans-(1,2)-2-(3-aminopyrrolidin-1-yl)indan-1-yloxy]benzamide]"
1 to 10,,"NC(=O)c1ccc(O[C@@H]2c3ccccc3C[C@H]2N2CCC[C@H](N)C2)cc1 (racemic) [Example 537, 4-[rac-trans-(1,2)-2-((S)-3-aminopiperidin-1-yl)indan-1-yloxy]benzamide]"
< 1,,"CC(=O)Nc1cccc(OC2c3ccccc3CC2N2CCCC2)c1 (racemic) [Example 641, N-[3-(rac-trans-(1,2)-2-pyrrolidin-1-ylindan-1-yloxy)phenyl]acetamide]"
< 1,,"NS(=O)(=O)c1ccc(O[C@H]2c3ccccc3C[C@@H]2N2CCCC2)c(Cl)c1 (racemic) [Example 444, 3-chloro-4-(rac-trans-(1,2)-2-pyrrolidin-1-ylindan-1-yloxy)benzenesulfonamide]"
< 1,,"Cc1nnc(C)n1-c1ccc(O[C@H]2c3cc(Cl)cc(Cl)c3C[C@@H]2N2CCCN(C)CC2)cc1 [Example 349, 1-{trans-(1S,2S)-4,6-dichloro-1-[4-(3,5-dimethyl-[1,2,4]triazol-4-yl)phenoxy]indan-2-yl}-4-methyl-[1,4]diazepane]"
< 1,,"CS(=O)(=O)c1ccc(O[C@H]2c3ccccc3C[C@@H]2N2CCC[C@@H](NCCC(F)(F)F)C2)cc1 [Example 220, {(R)-1-[trans-(1S,2S)-1-(4-methanesulfonylphenoxy)indan-2-yl]piperidin-3-yl}-(3,3,3-trifluoropropyl)amine]"
< 1,,"Cc1nnc(C)n1-c1ccc(O[C@H]2c3cc(Cl)cc(Cl)c3C[C@@H]2N2CC[C@H](O)C2)c(F)c1 [Example 200, (S)-1-{(1S,2S)-4,6-dichloro-1-[4-(3,5-dimethyl-[1,2,4]triazol-4-yl)-2-fluorophenoxy]indan-2-yl}pyrrolidin-3-ol]"
< 1,,"Cc1nnc(C)n1-c1ccc(O[C@H]2c3cc(Cl)cc(F)c3C[C@@H]2N2CC[C@@H](O)C2)c(F)c1 [Example 142, (R)-1-{trans-(1S,2S)-6-chloro-1-[4-(3,5-dimethyl-[1,2,4]triazol-4-yl)-2-fluorophenoxy]-4-fluoroindan-2-yl}pyrrolidin-3-ol]"
1 to 10,,"CC(=O)Nc1cccc(O[C@H]2c3ccc(Cl)cc3C[C@@H]2N2CCCC2)c1 (racemic) [Example 655, N-[3-(rac-trans-(1,2)-5-chloro-2-pyrrolidin-1-ylindan-1-yloxy)phenyl]acetamide]"
< 1,,"CS(=O)(=O)c1ccc(O[C@H]2c3cc(Cl)cc(Cl)c3C[C@@H]2N2CC[C@@H](N)C2)cc1 [Example 104, (R)-1-[trans-(1S,2S)-4,6-dichloro-1-(4-methanesulfonylphenoxy)indan-2-yl]pyrrolidin-3-ylamine]"
1 to 10,,"Cn1ccn(-c2ccc(Cl)c(O[C@H]3c4cc(F)cc(F)c4C[C@@H]3N3CC[C@@H](O)C3)c2)c1=O [Example 338, 1-{4-chloro-3-[(1S,2S)-4,6-difluoro-2-((R)-3-hydroxypyrrolidin-1-yl)indan-1-yloxy]phenyl}-3-methyl-1,3-dihydroimidazol-2-one]"
< 1,,"NC1CCN([C@@H]2Cc3ccccc3[C@H]2Oc2ccc(S(N)(=O)=O)c(Cl)c2Cl)C1 (mixture of isomers) [Example 542, 4-[rac-trans-(1,2)-2-(3-aminopyrrolidin-1-yl)indan-1-yloxy]-2,3-dichlorobenzenesulfonamide]"
1 to 10,,"CC1(C)NC(=O)N(c2ccc(O[C@H]3c4cc(Cl)cc(Cl)c4C[C@@H]3N3CC[C@@H](O)C3)c(Cl)c2)C1=O [Example 423, 3-{3-chloro-4-[(1S,2S)-4,6-dichloro-2-((R)-3-hydroxypyrrolidin-1-yl)indan-1-yloxy]phenyl}-5,5-dimethylimidazolidine-2,4-dione]"
< 1,,"CS(=O)(=O)c1ccc(O[C@H]2c3ccccc3C[C@@H]2N2CCC[C@@H](N)C2)cc1 [Example 95, (R)-1-[trans-(1S,2S)-1-(4-methanesulfonylphenoxy)indan-2-yl]piperidin-3-ylamine]"
< 1,,"Clc1cc(Cl)c2c(c1)[C@H](Oc1ccc(-n3cncn3)cc1)[C@@H](N1CC3CNCC3C1)C2 (mixture of isomers) [Example 377, 2-[rac-trans-(1,2)-4,6-dichloro-1-(4-[1,2,4]triazol-1-ylphenoxy)indan-2-yl]octahydropyrrolo[3,4-c]pyrrole]"
1 to 10,,"N#Cc1ccc2cccc(O[C@H]3c4ccccc4CC[C@@H]3N3CCC[C@H](N)C3)c2n1 (racemic) [Example 596, 8-[rac-trans-(1,2)-2-((S)-3-aminopiperidin-1-yl)-1,2,3,4-tetrahydronaphthalen-1-yloxy]quinoline-2-carbonitrile]"
,20 to 50,"COc1cccc(CC#N)c1O[C@H]1c2ccccc2CC[C@@H]1N1CCOCC1 (racemic) [Example 213, [3-methoxy-2-(rac-trans-(1,2)-2-morpholin-4-yl-1,2,3,4-tetrahydronaphthalen-1-yloxy)phenyl]acetonitrile]"
1 to 10,,"O=C1COC(=O)N1c1ccc(F)c(O[C@H]2c3cc(Cl)cc(Cl)c3C[C@@H]2N2CC[C@@H](O)C2)c1 [Example 418, 3-{3-[(1S,2S)-4,6-dichloro-2-((R)-3-hydroxypyrrolidin-1-yl)indan-1-yloxy]-4-fluorophenyl}oxazolidine-2,4-dione]"
1 to 10,,"COc1cccc(F)c1O[C@@H]1c2ccccc2C[C@H]1N1CCC(N)C1 (mixture of isomers) [Example 266, 1-[rac-trans-(1,2)-1-(2-fluoro-6-methoxyphenoxy)indan-2-yl]pyrrolidin-3-ylamine]"
,20 to 50,"C[C@@]1(N2CCCC2)Cc2ccccc2[C@H]1Oc1ccc(S(C)(=O)=O)cc1 (racemic) [Example 252, 1-[1-(4-methanesulfonylphenoxy)-2-methylindan-2-yl]pyrrolidine]"
< 1,,"CS(=O)(=O)c1ccc(O[C@@H]2c3cc(Cl)cc(F)c3C[C@H]2N2CCC[C@@H](N)C2)cc1 (racemic) [Example 93, (R)-1-[rac-trans-(1,2)-6-chloro-4-fluoro-1-(4-methanesulfonylphenoxy)indan-2-yl]piperidin-3-ylamine]"
1 to 10,,"O=C1CCC(=O)N1c1ccc(O[C@H]2c3cc(Cl)cc(F)c3C[C@@H]2NC2CCCC2)c(F)c1 [Example 752, 1-[4-(trans-(1S,2S)-6-Chloro-2-cyclopentylamino-4-fluoro-indan-1-yloxy)-3-fluoro-phenyl]-pyrrolidine-2,5-dione]"
< 1,,"NS(=O)(=O)c1ccc(OC2c3ccccc3CC2N2CCCC2)cc1 (racemic) [Example 466, 4-(rac-trans-(1,2)-2-pyrrolidin-1-ylindan-1-yloxy)benzenesulfonamide]"
,20 to 50,"Fc1ccc(O[C@H]2c3ccccc3CC[C@@H]2N2CCOCC2)c(-c2ccno2)c1 (racemic) [Example 507, 4-[rac-trans-(1,2)-1-(4-fluoro-2-isoxazol-5-ylphenoxy)-1,2,3,4-tetrahydronaphthalen-2-yl]morpholine]"
1 to 10,,"Cc1cn(-c2ccc(O[C@H]3c4cc(Cl)cc(F)c4C[C@@H]3N3CC[C@@H](O)C3)cc2)c(C(C)C)n1 [Example 720, (R)-1-{trans-(1S,2S)-6-Chloro-4-fluoro-1-[4-(2-isopropyl-4-methyl-imidazol-1-yl)-phenoxy]-indan-2-yl}-pyrrolidin-3-ol]"
,20 to 50,"COCCc1ccc(O[C@H]2c3ccccc3CC[C@@H]2N2CCC[C@H](N)C2)cc1 (racemic) [Example 202, (S)-1-{rac-trans-(1,2)-1-[4-(2-methoxyethyl)phenoxy]-1,2,3,4-tetrahydronaphthalen-2-yl}piperidin-3-ylamine]"

SMILES,IC50 [µM],inhibition at 10 µM [%]
"CCNS(=O)(=O)c1ccc(O[C@@H]2c3ccccc3C[C@H]2N2CCCC2)cc1 (racemic) [Example 700, N-ethyl-4-(rac-trans-(1,2)-2-pyrrolidin-1-ylindan-1-yloxy)benzenesulfonamide]",< 1,

# From patent publication US8822449B2, “Substituted aminoindanes and analogs thereof, and the pharmaceutical use thereof” (Sanofi, priority 2008, dated 2014)
